Data taken from ChEMBL document CHEMBL5346931, “Design, synthesis, and repurposing of O6-aminoalkyl-sulfuretin analogs towards discovery of potential lead compounds as antileishmanial agents” (Eur J Med Chem, 2023).

Legend:
Leishmania donovani [1] = test: Antileishmanial activity against Leishmania donovani promastigotes assessed as parasitic growth inhibition incubated for 3 days by resazurin dye based assay; type: functional, organism-based; details: 72 h
Leishmania donovani [2] = test: Antileishmanial activity against Leishmania donovani promastigotes assessed as parasitic growth inhibition at 25 uM incubated for 3 days by resazurin dye based assay relative to control; type: functional; details: 72 h, time 3 day
Leishmania donovani [3] = test: Antileishmanial activity against Leishmania donovani promastigotes assessed as parasitic growth inhibition at 50 uM incubated for 3 days by resazurin dye based assay relative to control; type: functional; details: 72 h, time 3 day
Leishmania donovani [4] = test: Antileishmanial activity against Leishmania donovani amastigotes infected in human THP-1 cells assessed as inhibition of parasite infection incubated for 72 hrs by DAPI staining based assay; type: functional, organism-based; details: THP-1, 72 h
[5] = Cytotoxicity against human THP-1 cells; type: toxicity, cell-based
Leishmania donovani [6] = test: Antileishmanial activity against Leishmania donovani amastigotes infected in human THP-1 cells assessed as inhibition of intracellular parasite number incubated for 72 hrs by DAPI staining based assay; type: functional, organism-based; details: THP-1, 72 h

COc1ccc2c(c1)O/C(=C\c1ccc(O)c(O)c1)C2=O
IC50 (Leishmania donovani [1]): 26.4 µM | inhibition at 25 µM (Leishmania donovani [2]): 105% | inhibition at 50 µM (Leishmania donovani [3]): 108%

COc1ccc(/C=C2\Oc3cc(OCCN4CCCCC4)ccc3C2=O)cc1
IC50 (Leishmania donovani [4]): 34.8 µM | IC50 (Leishmania donovani [1]): 4.3 µM | CC50 [5]: 40.7 µM | inhibition at 25 µM (Leishmania donovani [2]): 104% | IC50 (Leishmania donovani [6]): 31.5 µM | inhibition at 50 µM (Leishmania donovani [3]): 99%

COc1ccc(/C=C2\Oc3cc(OCCN4CCCCC4)ccc3C2=O)cc1OC
IC50 (Leishmania donovani [4]): 29.7 µM | IC50 (Leishmania donovani [1]): 2.5 µM | CC50 [5]: 27.4 µM | inhibition at 25 µM (Leishmania donovani [2]): 122% | IC50 (Leishmania donovani [6]): 25.5 µM | inhibition at 50 µM (Leishmania donovani [3]): 127%

COc1ccccc1/C=C1\Oc2cc(OCCN3CCCC3)ccc2C1=O
IC50 (Leishmania donovani [1]): > 100 µM | inhibition at 25 µM (Leishmania donovani [2]): 69% | inhibition at 50 µM (Leishmania donovani [3]): 71%

COc1cccc(/C=C2\Oc3cc(OCCN4CCCC4)ccc3C2=O)c1
IC50 (Leishmania donovani [4]): 26.7 µM | IC50 (Leishmania donovani [1]): 4.8 µM | CC50 [5]: 28.9 µM | inhibition at 25 µM (Leishmania donovani [2]): 112% | IC50 (Leishmania donovani [6]): 22.9 µM | inhibition at 50 µM (Leishmania donovani [3]): 117%

COc1ccc(/C=C2\Oc3cc(OCCN4CCCC4)ccc3C2=O)cc1
IC50 (Leishmania donovani [4]): 22.6 µM | IC50 (Leishmania donovani [1]): 4.8 µM | CC50 [5]: 21.5 µM | inhibition at 25 µM (Leishmania donovani [2]): 108% | IC50 (Leishmania donovani [6]): 15.8 µM | inhibition at 50 µM (Leishmania donovani [3]): 115%

COc1ccc(OC)c(/C=C2\Oc3cc(OCCN4CCCC4)ccc3C2=O)c1
IC50 (Leishmania donovani [4]): 11.1 µM | IC50 (Leishmania donovani [1]): 4.1 µM | CC50 [5]: 10.5 µM | inhibition at 25 µM (Leishmania donovani [2]): 115% | IC50 (Leishmania donovani [6]): 4.6 µM | inhibition at 50 µM (Leishmania donovani [3]): 116%

COc1cc(/C=C2\Oc3cc(OCCN4CCCC4)ccc3C2=O)cc(OC)c1OC
IC50 (Leishmania donovani [4]): 27.3 µM | IC50 (Leishmania donovani [1]): 3.1 µM | CC50 [5]: 26.2 µM | inhibition at 25 µM (Leishmania donovani [2]): 126% | IC50 (Leishmania donovani [6]): 15.7 µM | inhibition at 50 µM (Leishmania donovani [3]): 133%

COc1ccccc1/C=C1\Oc2cc(OCCCN3CCCC3)ccc2C1=O
IC50 (Leishmania donovani [4]): 21.2 µM | IC50 (Leishmania donovani [1]): 4.1 µM | CC50 [5]: 14.3 µM | inhibition at 25 µM (Leishmania donovani [2]): 107% | IC50 (Leishmania donovani [6]): 8.2 µM | inhibition at 50 µM (Leishmania donovani [3]): 110%

COc1cccc(/C=C2\Oc3cc(OCCCN4CCCC4)ccc3C2=O)c1OC
IC50 (Leishmania donovani [4]): 26.4 µM | IC50 (Leishmania donovani [1]): 5.4 µM | CC50 [5]: 33.5 µM | inhibition at 25 µM (Leishmania donovani [2]): 109% | IC50 (Leishmania donovani [6]): > 100 µM | inhibition at 50 µM (Leishmania donovani [3]): 116%

COc1ccc(OC)c(/C=C2\Oc3cc(OCCCN4CCCC4)ccc3C2=O)c1
IC50 (Leishmania donovani [4]): 6.3 µM | IC50 (Leishmania donovani [1]): 3.7 µM | CC50 [5]: 6.6 µM | inhibition at 25 µM (Leishmania donovani [2]): 103% | IC50 (Leishmania donovani [6]): 4.4 µM | inhibition at 50 µM (Leishmania donovani [3]): 103%

COc1ccc(/C=C2\Oc3cc(OCCCN4CCCC4)ccc3C2=O)cc1OC
IC50 (Leishmania donovani [4]): 26.2 µM | IC50 (Leishmania donovani [1]): 3.1 µM | CC50 [5]: 26.9 µM | inhibition at 25 µM (Leishmania donovani [2]): 120% | IC50 (Leishmania donovani [6]): 16.9 µM | inhibition at 50 µM (Leishmania donovani [3]): 124%

COc1cc(/C=C2\Oc3cc(OCCCN4CCCC4)ccc3C2=O)cc(OC)c1
IC50 (Leishmania donovani [4]): 14 µM | IC50 (Leishmania donovani [1]): 2.8 µM | CC50 [5]: 15.3 µM | inhibition at 25 µM (Leishmania donovani [2]): 104% | IC50 (Leishmania donovani [6]): 14.3 µM | inhibition at 50 µM (Leishmania donovani [3]): 102%

COc1ccc(/C=C2\Oc3cc(OCCCCCN4CCCCC4)ccc3C2=O)cc1OC
IC50 (Leishmania donovani [4]): 24.1 µM | IC50 (Leishmania donovani [1]): 2.9 µM | CC50 [5]: 26.1 µM | inhibition at 25 µM (Leishmania donovani [2]): 115% | IC50 (Leishmania donovani [6]): 17.1 µM | inhibition at 50 µM (Leishmania donovani [3]): 124%

COc1ccc(/C=C2\Oc3cc(OCCCN4CCCCC4)ccc3C2=O)cc1OC
IC50 (Leishmania donovani [4]): 29.5 µM | IC50 (Leishmania donovani [1]): 2.6 µM | CC50 [5]: 28.4 µM | inhibition at 25 µM (Leishmania donovani [2]): 119% | IC50 (Leishmania donovani [6]): 22.3 µM | inhibition at 50 µM (Leishmania donovani [3]): 125%

CCN(CC)CCCOc1ccc2c(c1)O/C(=C\c1cccc(OC)c1)C2=O
IC50 (Leishmania donovani [4]): 17.1 µM | IC50 (Leishmania donovani [1]): 4.6 µM | CC50 [5]: 19.3 µM | inhibition at 25 µM (Leishmania donovani [2]): 114% | IC50 (Leishmania donovani [6]): 14.5 µM | inhibition at 50 µM (Leishmania donovani [3]): 118%

CCN(CC)CCOc1ccc2c(c1)O/C(=C\c1cccc(OC)c1)C2=O
IC50 (Leishmania donovani [4]): 27.4 µM | IC50 (Leishmania donovani [1]): 8.6 µM | CC50 [5]: 39 µM | inhibition at 25 µM (Leishmania donovani [2]): 115% | IC50 (Leishmania donovani [6]): > 100 µM | inhibition at 50 µM (Leishmania donovani [3]): 121%

CCN(CC)CCOc1ccc2c(c1)O/C(=C\c1ccccc1OC)C2=O
IC50 (Leishmania donovani [4]): 13.3 µM | IC50 (Leishmania donovani [1]): 5.3 µM | CC50 [5]: 17.2 µM | inhibition at 25 µM (Leishmania donovani [2]): 110% | IC50 (Leishmania donovani [6]): 9.9 µM | inhibition at 50 µM (Leishmania donovani [3]): 115%

COc1cccc(/C=C2\Oc3cc(OCCN4CCOCC4)ccc3C2=O)c1
IC50 (Leishmania donovani [1]): 27 µM | inhibition at 25 µM (Leishmania donovani [2]): 80% | inhibition at 50 µM (Leishmania donovani [3]): 105%

CCCCCCCCCCCCCCCCCCOCC(COP(=O)([O-])OCC[N+](C)(C)C)OC (stereo unspecified) [EDELFOSINE]
IC50 (Leishmania donovani [4]): 7.7 µM | IC50 (Leishmania donovani [1]): 3.9 µM | CC50 [5]: 12.9 µM | inhibition at 25 µM (Leishmania donovani [2]): 108% | IC50 (Leishmania donovani [6]): 2 µM | inhibition at 50 µM (Leishmania donovani [3]): 108%
